Assay results as given in PMC5974779, “Prediction of Drug-Induced Hepatotoxicity Using Long-Term Stable Primary Hepatic 3D Spheroid Cultures in Chemically Defined Conditions” (Toxicological Sciences, 2018).
Like-named read-outs stand apart in the source and are kept apart here.

Key:
[1] = therapeutic total cmax; ref PMID; cited from earlier work
PHH 2D sandwich cultures = conditions: cited from earlier work
clinical DILI in man = conditions: cited from earlier work
[2] = system: primary human hepatocytes (PHH) 3D spheroids
[3] = system: PHH micropatterned cocultures with murine embryonic fibroblasts; conditions: cited from earlier work
[4] = ref DrugBank and Prescribers' Digital Reference database; cited from earlier work
[5] = system: PHH spheroids (hanging-drop); conditions: cited from earlier work; for Hanging-drop spheroids (Proctor 2017) 100x: PHH hanging-drop spheroids, 100x Cmax, ref Proctor 2017; for hepatotoxicity classification in hanging-drop PHH spheroids: 100× cmax, 2 weeks, ref Proctor et al., 2017
[6] = PHH 2D sandwich cultures, 100x Cmax, ref Xu 2008
[7] = micropatterned cocultures, 100x Cmax, ref Khetani 2013
[8] = FDA drug labeling DILI score, ref Chen et al., 2011
[9] = clinical DILI classification in man (POS/NEG)
[10] = clinical DILI classification used in this study, Supplementary Table 2, ref Chen et al., 2011, Guo et al., 2005, O'Brien et al., 2006, Sakatis et al., 2012, Suzuki et al., 2010, Xu et al., 2008
[11] = clinical DILI classification, Supplementary Table 1, ref Chen et al., 2011, Guo et al., 2005, O'Brien et al., 2006, Sakatis et al., 2012, Suzuki et al., 2010, Xu et al., 2008
[12] = clinical DILI classification, ref Xu et al. (2008)
[13] = clinical hepatotoxicity classification, ref O'Brien et al. (2003)
[14] = reported pattern of liver damage, Supplementary Table 2, ref literature
[15] = DILI classification score, ref Suzuki et al. (2010)
[16] = clinical hepatotoxicity classification, ref Sakatis et al. (2012)

| SMILES | Cmax [1] [nM] | 2Dsw (Xu 2008) 100x (PHH 2D sandwich cultures; [6]) | Classified as (clinical DILI in man; in vivo) | Clinical DILI class (panel heading of Figure 4) (clinical DILI in man; in vivo) | DILI in vivo (clinical DILI in man; in vivo) | FDA (0-8) (clinical DILI in man; in vivo) | Sakatis et al. (2012) (clinical DILI in man; in vivo) | Type of DILI (clinical DILI in man; in vivo) | Xu et al. (2008) (clinical DILI in man; in vivo) | Chemically defined spheroids (this study) 20x [2] | Extent of hepatic metabolism [4] | Hanging-drop spheroids (Proctor 2017) 100x [5] | FDA (0-8) (clinical DILI in man; [8]) | DILI in vivo (clinical DILI in man; [9]) | Classified as (clinical DILI in man; [10]) | DILI in vivo (clinical DILI in man; [11]) | Xu et al. (2008) (clinical DILI in man; [12]) | O'Brien et al. (2003) (clinical DILI in man; [13]) | Type of DILI (clinical DILI in man; [14]) | other results |
| --- | --- | --- | --- | --- | --- | --- | --- | --- | --- | --- | --- | --- | --- | --- | --- | --- | --- | --- | --- | --- |
| CC(=O)[C@H]1CC[C@H]2[C@@H]3CCC4=CC(=O)CC[C@]4(C)[C@H]3CC[C@]12C [Progesterone] | 193 | Negative | NEG | DILI negative | NEG | 2 | non-hepatotixic | Non-hepatotoxic | Positive | Negative | – | – | – | – | – | – | – | – | – | Suzuki et al. (2010) (clinical DILI in man; in vivo): 1; MPCC (Khetani 2013) 100x [3, 7]: Negative |
| CN(CCOc1ccc(CC2SC(=O)NC2=O)cc1)c1ccccn1 (centres unmarked) [Rosiglitazone] | 950 | Negative | – | – | – | – | – | – | – | – | Extensive | Positive | 3 | NEG | NEG | NEG | Negative | Non-toxic | Non-hepatotoxic | Clinical DILI classification (Figure 5) (clinical DILI in man; structural analogue pairs, Figure 5, ref Chen et al., 2011, Xu et al., 2008 and others): DILI negative |
| C=C[C@H]1C[N@@]2CC[C@H]1C[C@H]2[C@H](O)c1ccnc2ccc(OC)cc12 [Quinine] | 9250 | – | – | – | – | – | – | – | – | Positive | – | – | – | – | – | – | – | – | – | 2Dsw (Xu 2008) 100x (PHH 2D sandwich cultures): Positive; MPCC (Khetani 2013) 100x [3]: Positive |
| CCOC(=O)c1ncn2c1CN(C)C(=O)c1cc(F)ccc1-2 [Flumazenil] | 1120 | Negative | – | – | – | – | – | – | – | Negative | Extensive | Negative | 0 | NEG | NEG | NEG | Negative | Non-toxic | Non-hepatotoxic | – |
| CN(C)CCCN1c2ccccc2Sc2ccc(Cl)cc21 [Chlorpromazine] | 840 | Positive | POS | High DILI concern | POS | 2 | Hepatotoxic | Cholestatic injury or Mixed hepatitis | Positive | Positive | Extensive | Positive | – | – | – | – | – | – | – | Guo et al. (2005) (clinical DILI in man; in vivo): 3; O'Brien et al. (2003) (clinical DILI in man; in vivo): Moderately; Suzuki et al. (2010) (clinical DILI in man; in vivo): 2 |
| Cc1cn([C@H]2C=C[C@@H](CO)O2)c(=O)[nH]c1=O [Stavudine] | 3460 | Negative | – | – | – | – | – | – | – | Negative | Minimal | Negative | 8 | POS | POS | POS | Positive | Severely | Cholestatic injury or Mixed hepatitis | Suzuki et al. (2010) (clinical DILI in man; [15]): 2; FDA (Severity) (clinical DILI in man; FDA drug labeling DILI concern, ref Chen et al., 2011): most DILI concern; Sakatis et al. (2012) (clinical DILI in man; [16]): Hepatotoxic |
| O=C1CN(/N=C/c2ccc(-c3ccc([N+](=O)[O-])cc3)o2)C(O)=N1 [Dantrolene] | 3690 | Positive | POS | Severe DILI | POS | 8 | Hepatotoxic | Hepatocellular injury or Mixed hepatitis | Positive | Positive | Extensive | Negative | – | – | – | – | – | – | – | hepatotoxicity classification in hanging-drop PHH spheroids [5]: previously missed; FDA (Severity) (clinical DILI in man; in vivo): most DILI concern; Guo et al. (2005) (clinical DILI in man; in vivo): 3; O'Brien et al. (2003) (clinical DILI in man; in vivo): Severely; hepatotoxicity evaluation in CD-spheroids [2]: revealed the DILI liability |
| CN(Cc1cnc2nc(N)nc(N)c2n1)c1ccc(C(=O)N[C@@H](CCC(=O)O)C(=O)O)cc1 [Methotrexate] | – | Negative | – | – | – | – | – | – | – | Positive | Moderate | Negative | 3 | POS | POS | POS | Positive | Severely | Hepatocellular injury | hepatotoxicity classification in hanging-drop PHH spheroids [5]: previously missed; Guo et al. (2005) (clinical DILI in man; DILI classification score, ref Guo et al. (2005)): 3; Suzuki et al. (2010) (clinical DILI in man; [15]): 1; Sakatis et al. (2012) (clinical DILI in man; [16]): Hepatotoxic; hepatotoxicity evaluation in CD-spheroids [2]: revealed the DILI liability; hepatotoxicity evaluation in CD-spheroids ([2]; human, 14 days): clearly detected already at 1× cmax exposure levels |
| CCN(CC)CC(=O)Nc1c(C)cccc1C [Lidocaine] | – | Negative | – | – | – | – | – | – | – | – | – | – | – | – | – | – | – | – | – | MPCC (Khetani 2013) 100x [3, 7]: Positive |
| CC(c1cc2ccccc2s1)N(O)C(N)=O (centres unmarked) [Zileuton] | 13100 | Positive | POS | High DILI concern | POS | 5 | Hepatotoxic | Hepatocellular injury | Positive | Negative | Extensive | Negative | – | – | – | – | – | – | – | hepatotoxicity detection in 2D sandwich cultures of PHH (PHH 2D sandwich cultures; 100× cmax, 24 h, high content imaging, ref Xu et al., 2008): flagged as hepatotoxic; reactive oxygen species levels in 2D sandwich cultures of PHH (PHH 2D sandwich cultures; ref Xu et al., 2008): only slight increases in reactive oxygen species levels; FDA (Severity) (clinical DILI in man; in vivo): most DILI concern; O'Brien et al. (2003) (clinical DILI in man; in vivo): Severely; hepatotoxicity evaluation in CD-spheroids [2]: predicted to be DILI negative |
| Cc1ccccc1C(OCCN(C)C)c1ccccc1 (centres unmarked) [Orphenadrine] | 490 | Negative | NEG | DILI negative | NEG | 0 | non-hepatotixic | Non-hepatotoxic | Negative | – | Extensive | Negative | – | – | – | – | – | – | – | – |
